Assay results published in patent publication US10039772B2, “Methods and compositions for treating alcohol use disorders” (priority 2015, dated 2018).
Where a name gives a salt, the structure may show the parent alone. Read-outs that look alike come from different tables or passages of the source.

Legend:
Pannexin 1 = Pannexin 1 (Homo sapiens, UniProt Q96RD7); details: cited from earlier work
C57BL/6J mice = assay: Mouse drinking in the dark (DID) binge-like drinking; type: in vivo
Description: The DID paradigm capitalizes on the circadian rhythm in drinking of mice utilizing a discrete time of exposure to ethanol to obtain pharmacologically significant ethanol drinking in a four-day procedure (114, 115). It is considered a preclinical model of binge alcohol drinking (116). Blood ethanol levels of C57BL/6J mice in DID are reliably over 100 mg % following the final drinking bout and produce behavioral intoxication in C57BL/6J mice (115). In the DID paradigm, the water bottle is replaced with a bottle containing 20% ethanol for 2 hours in the home cage 3 hours after lights go off. The design involves 3 daily drinking sessions of 2 hours and a fourth of 4 hours (114, 115).

dependent rats = details: systemic glucocorticoid receptor antagonism; cited from earlier work
[1] = tested on: alcohol dependent and nondependent Wistar rats; assay: Rat operant self-administration of alcohol (dependent and nondependent rats); type: in vivo; details: acute, systemic administration
Description: Self-administration sessions were conducted in standard operant conditioning chambers (Med Associates). The rats were trained to self-administer alcohol as previously reported (13). First, the rats were given free-choice access to alcohol (10% w/v) and water for 1 day in their home cages to habituate them to the taste of alcohol. Second, the rats were subjected to an overnight session in the operant chambers with access to one lever (right lever) that delivered water in a fixed-ratio 1 (FR1) schedule where every lever press is reinforced with delivery of 0.1 ml of solution. Food was available ad libitum during this training. Third, after 1 day off, the rats were subjected to a 2 hour session (FR1) for 1 day and a 1 hour session (FR1) the next day, with one lever delivering alcohol (right lever). All of the subsequent sessions lasted 30 min, and two levers were available (left lever: water; right lever: alcohol) until stable levels of intake were reached. Upon completion of this procedure, the animals were allowed to self-administer a 10% (w/v) alcohol solution and water on an FR1 schedule of reinforcement.
The rats were made dependent by chronic, intermittent exposure to alcohol vapors as previously described (13).
Effect of carbenoxolone (CBX) on alcohol drinking in rats and mice.

[2] = tested on: inflammasome activation in neurons and astrocytes; details: cited from earlier work
11β-HSD1, 11β-HSD2 = details: cited from earlier work
[3] = 11β-HSD isozyme specificity per cited reference

Chain of Pannexin 1 (Q96RD7 whole entry, species assumed): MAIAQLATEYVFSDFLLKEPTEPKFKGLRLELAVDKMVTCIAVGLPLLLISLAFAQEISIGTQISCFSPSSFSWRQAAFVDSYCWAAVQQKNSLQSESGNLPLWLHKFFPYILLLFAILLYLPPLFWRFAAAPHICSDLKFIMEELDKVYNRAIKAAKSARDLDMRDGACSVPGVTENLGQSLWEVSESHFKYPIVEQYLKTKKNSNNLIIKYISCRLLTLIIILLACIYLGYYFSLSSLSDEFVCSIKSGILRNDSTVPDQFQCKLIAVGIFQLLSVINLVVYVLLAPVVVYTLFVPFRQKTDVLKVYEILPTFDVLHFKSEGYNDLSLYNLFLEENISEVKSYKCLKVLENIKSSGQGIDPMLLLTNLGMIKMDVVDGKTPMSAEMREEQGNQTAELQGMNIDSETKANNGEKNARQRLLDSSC

Row | Compound | Specificity (11β-HSD1, 11β-HSD2; [3]) | other results
1 | 280: mimetic peptide SRPTEKTIFII [Number 280] | – | inhibition of Pannexin 1 (Pannexin 1): inhibited
2 | CC1(C)[C@@H](OC(=O)CCC(=O)O)CC[C@]2(C)[C@H]3C(=O)C=C4[C@@H]5C[C@@](C)(C(=O)O)CC[C@]5(C)CC[C@@]4(C)[C@]3(C)CC[C@@H]12 [Number 4, 18α-glycyrrhetinic acid 3β-O-hemisuccinate] | – | time course of the effect on ethanol intake within the DID session (C57BL/6J mice; first 2 h vs whole 4 h session): more pronounced in the first 2 hours; ethanol intake in the DID paradigm (C57BL/6J mice; mice, 4 h drinking session, vs saline vehicle): reduce
3 | 282: mimetic peptide SSFSWRQAAFVDS [Number 282] | – | inhibition of Pannexin 1 (Pannexin 1): inhibited
4 | Nc1ncnc2c1ncn2[C@@H]1O[C@H](COP(=O)(O)OP(=O)(O)OP(=O)(O)O)C(OC(=O)c2ccc(C(=O)c3ccccc3)cc2)C1O (some centres unmarked) [Number 265, 2′(3′)-O-(4-Benzoylbenzoyl)adenosine 5′-triphosphate triethylammonium salt] | – | inhibition of Pannexin 1 (Pannexin 1): inhibit Pannexin 1 more effectively than AYP
5 | CCOc1ccc(Nc2ccc(/C(=C3C=C/C(=[N+](/CC)Cc4cccc(S(=O)(=O)[O-])c4)C=C/3C)c3ccc(N(CC)Cc4cccc(S(=O)(=O)[O-])c4)cc3C)cc2)cc1.[Na+] [Number 256, Acid blue 90, Coomassie Brilliant Blue G] | – | inhibition of Pannexin 1 (Pannexin 1): most selective and least detrimental Pannexin 1 inhibitor
6 | CC#C[C@]1(O)CC[C@H]2[C@@H]3CCC4=CC(=O)CCC4=C3[C@@H](c3ccc(N(C)C)cc3)C[C@@]21C [mifepristone] | – | escalated alcohol drinking and compulsive response for alcohol (dependent rats): blocked
7 | 283: mimetic peptide WRQAAFVDSY [Number 283] | – | inhibition of Pannexin 1 (Pannexin 1): inhibited
8 | CCCN(CCC)S(=O)(=O)c1ccc(C(=O)O)cc1 [Number 257, Probenecid] | – | alcohol self-administration, alcohol dependent rats [1]: decreases; inhibition of Pannexin 1 (Pannexin 1): inhibits; inflammasome activation in neurons and astrocytes [2]: prevents
9 | Cn1cnnc1SCC(=O)C12CC3CC(CC(C3)C1)C2 [Number 124] | 11β- HSD1 > 2 | –
10 | CCN(CC)C(=O)Cc1cccc(NS(=O)(=O)c2cccc(Cl)c2C)n1 [Number 34] | 11β- HSD1 > 2 | –
11 | O=C1C(Cc2ccccc2)CCN1C1CCCCC1 (centres unmarked) [Number 56] | 11β- HSD1 > 2 | –
12 | N#Cc1ccc(-c2ccc(S(=O)(=O)Nc3cccc(CO)n3)cc2)cc1 [Number 39] | 11β- HSD1 > 2 | –
13 | O=C(CSc1nnnn1-c1cccc(Cl)c1)c1ccccc1 [Number 113] | 11β- HSD1 > 2 | –
14 | CC(C)(C)n1ncc2c1CCCN([C@H]1C3CC4CC1C[C@@](O)(C4)C3)C2=O [Number 109] | 11β- HSD1 > 2 | –
15 | O=C(N1CCC2(CCCCC2)C1)C1(c2ccccc2)CC1 [Number 96] | 11β- HSD1 > 2 | –
16 | Cn1c(-c2ccccc2C(F)(F)F)nnc1C12CCC(c3nc(-c4ccc(C(O)C(F)(F)F)cc4)no3)(CC1)CC2 (centres unmarked) [Number 31] | 11β- HSD1 > 2 | –
17 | Cc1c(Cl)cccc1S(=O)(=O)Nc1nc(CC(=O)N2CCN(C)CC2)cs1 [Number 5] | 11β- HSD1 > 2 | –
18 | Cc1c(Cl)cccc1S(=O)(=O)NCc1ccc(C(=O)N2C[C@@H](C)O[C@@H](C)C2)cc1 [Number 82] | 11β- HSD1 > 2 | –
19 | CC(C)(C)c1ccc(S(=O)(=O)N2C[C@H]3C[C@@H]2CN3C2CCCC2)cc1 [Number 30] | 11β- HSD1 > 2 | –
20 | C[C@@H]1CC(n2c(=O)[nH]c3ccccc32)C[C@@H](C)N1C(=O)c1cc(Cl)c(N)c(Cl)c1 (some centres unmarked) [Number 55] | 11β- HSD1 > 2 | –
21 | COc1cccc(C(=O)CSc2nnc(C)s2)c1 [Number 123] | 11β- HSD1 > 2 | –
22 | COc1ccc(N2C(=O)C(C)(C)C2c2ccccc2OC)cc1 (centres unmarked) [Number 51] | 11β- HSD1 > 2 | –
23 | CCN(CC)C(=O)C1CCCN(S(=O)(=O)c2cccc(Cl)c2C)C1 (centres unmarked) [Number 84] | 11β- HSD1 > 2 | –
24 | CC1(C)C(=O)N(c2cccc(S(C)(=O)=O)c2)C1c1cccc2nccnc12 (centres unmarked) [Number 53] | 11β- HSD1 > 2 | –

Row | Compound | Specificity (11β-HSD1, 11β-HSD2; [3]) | other results
25 | Cc1ccc(-c2cccc(C(=O)N3CCCC(C)(C)C3)n2)cc1F [Number 71] | 11β- HSD1 > 2 | –
26 | Cn1c(-c2ccccc2)nnc1C12CC3CC(CC(C3)C1)C2 [Number 23] | 11β- HSD1 > 2 | –
27 | CSc1nc(N2C[C@@H]3[C@H](C2)[C@H]3C(=O)O)ccc1C(=O)NC1C2CC3CC(C2)CC1C3 (some centres unmarked) [Number 50] | 11β- HSD1 > 2 | –
28 | N#Cc1cccnc1N[C@@H]1CCN(C(=O)O[C@H]2C3CC4CC2C[C@@](C(N)=O)(C4)C3)C1 [Number 79] | 11β- HSD1 > 2 | –
29 | O=C(O)c1ccccc1Nc1cccc(C(F)(F)F)c1 [flufenamic acid] | – | inhibition of Pannexin 1 (Pannexin 1): found to inhibit the channel
30 | CCN1CCN(C(=O)C23CC4CC(C2)CC(c2ccc(C)cc2)(C4)C3)CC1 [Number 111] | 11β- HSD1 > 2 | –
31 | C[C@@H]1CN(c2ccc(F)cc2C(F)(F)F)CCN1S(=O)(=O)c1ccc(C(N)=O)cc1Cl [Number 44] | – | Specificity (11β-HSD1, 11β-HSD2): 11β- HSD1 > 2
32 | CC(C)(Cc1ccc(Cl)cc1)C(=O)NC12CCC(C(N)=O)(CC1)CC2 [Number 61] | 11β- HSD1 > 2 | –
33 | O=C(Nc1ccc2scnc2c1)c1cc(Cl)cc(Cl)c1 [Number 118] | 11β- HSD1 > 2 | –
34 | Cc1cc(N)nc(NS(=O)(=O)c2ccc(-c3ccc(C#N)cc3)cc2)c1 [Number 36] | 11β- HSD1 > 2 | –
35 | COC1(C)CCCN(S(=O)(=O)c2ccc(C(C)(C)C)cc2)CC1 (centres unmarked) [Number 108] | 11β- HSD1 > 2 | –
36 | CC1(C)OC(N[C@@H](CCO)c2ccc(F)cc2)=NS(=O)(=O)C1(C)C [Number 103] | – | Specificity (11β-HSD1, 11β-HSD2): 11β- HSD1 > 2
37 | Cn1c(N2CCN(S(=O)(=O)c3ccc(C(C)(C)C)cc3)CC2)nc2ccccc21 [Number 125] | 11β- HSD1 > 2 | –
38 | O=C(O)CC1C2CC3CC(C2)CC1C3 (centres unmarked) [Number 73] | 11β- HSD1 > 2 | –
39 | O=C(N[C@H]1C2CC3CC1C[C@@](O)(C3)C2)c1cnc(N2CCOCC2)nc1C1CC1 [Number 48] | 11β- HSD1 > 2 | –
40 | O=C(CS(=O)(=O)c1ccccc1)c1ccc(C(F)(F)F)cc1 [Number 40] | 11β- HSD1 > 2 | –
41 | Nc1ncnc2c1ncn2[C@@H]1O[C@H](COP(=O)(O)OP(=O)(O)OP(=O)(O)O)[C@@H](O)[C@H]1O [ATP] | – | inhibition of Pannexin 1 (Pannexin 1): inhibits
42 | Cn1c(-c2ccccc2C(F)(F)F)nnc1C12CCC(c3nc(-c4ccc(F)cc4)no3)(CC1)CC2 [Number 33] | 11β- HSD1 > 2 | –
43 | COc1c(-c2nnc(-c3ccccc3C(F)(F)F)n2C)ccc2ccc(Cl)cc12 [Number 24] | 11β- HSD1 > 2 | –
44 | 281: mimetic peptide GHGDPLHLEEVKC [Number 281] | – | inhibition of Pannexin 1 (Pannexin 1): inhibited
45 | N#Cc1cccnc1N1CCN(CC(=O)NC2C3CC4CC(C3)CC2C4)CC1 (centres unmarked) [Number 58] | 11β- HSD1 > 2 | –
46 | C[C@@H]1CN(c2ccc(F)cc2C(F)(F)F)CCN1S(=O)(=O)c1ccc([C@@](O)(C(N)=O)C(F)(F)F)s1 [Number 45] | 11β- HSD1 > 2 | –
47 | CC(C)(Oc1ccc(-n2cccn2)cn1)C(=O)N[C@H]1C2CC3CC1C[C@@](C(N)=O)(C3)C2 [Number 63] | 11β- HSD1 > 2 | –
